The subject of assay [1] is spleen cells (antibody production, direct PFC count). Description: Plaque Forming Cell Assay (inhibition of antibody production). The format is cell-based, Balb/c strain mice. Particulars: Mus musculus, Erythrocyte, 120 h; 10^-6 M; spleen cells of mice sensitized with sheep erythrocytes, cultured 5 days; read-out: Inhibition rate. How it is done: The plaque forming cell assay was carried out by the following manner with reference to the method of Jerne et al. [Science, 140, 405 (1963) ]and the method of Yamamoto et al. [Drugs Experimental Clinical Research, III(1), 5 (1982)].
Male Balb/c strain mice (7-week-old) (Charles River Co.) were sensitized with 1×10^8 sheep erythrocytes (product of Biotest Research Institute) administered via the caudal vein, and the spleens were extirpated after 6 or 7 days after the sensitization. The extirpated spleens were immersed in Hanks' solution (Nissui Seiyaku) to make a cell suspension, which was then filtered, followed by centrifugal separation at 1200 rpm for 5 minutes. After centrifugal separation, the supernatant was discarded and the precipitate was treated with Tris·NH4 Cl solution to remove the erythrocytes, and then washed three times with Hanks' solution. After discarding the supernatant, the cells were suspended in an RPMI-1640 medium (Nissui Seiyaku) containing 10% bovine fetal serum (Gibco Co. ), 50 μg/ml of streptomycin (Meiji Seika), […] of penicillin (Meiji Seika) and 2mercaptoethanol (5×10^-5 M). In each well of a micro culture plate (NUNK Co., Ltd., 24 wells) were put 2 ml of the mixture of the cell suspension containing 1×10^7 of spleen cells, 5×10^6 sheep erythrocytes and a test compound solution (10^-6 M) obtained by diluting the test compound dissolved in dimethylsulfoxide (10^-2 M) with the above mentioned RPMI-1640, and the cells were cultured at 37° C. for 5 days.
After the completion of the culturing, the cells were subjected to centrifugal separation at 2000 rpm for 5 minutes, and the resulting supernatant was removed. The precipitate was suspended in 1 ml of Hanks' solution, again subjected to centrifugal separation, suspended in 1 ml of Hanks' solution, and then, 50 μl of the suspension and 50 μl of sheep erythrocytes were added to 400 μl of 0.25% agarose/Hanks' solution heated to 50° C. in advance, and the mixture was scattered on a glass slide, placed on a plaque assay plate, and together with guinea pig complement (Cedarlene Institute) diluted 40-fold with a phosphate buffer solution, incubated at 37° C. for 1 to 2 hours. The number of the appearing direct plaque cells (direct PFC count) in suspension was counted.
The inhibition rate of the antibody production of the test compound was determined by the following equation. [formula]
The compound used for comparison was 5,6-dihydro-9-fluoro-3-phenylbenz[c]acridine-7-carboxylic acid [Japanese Published Unexamined Patent Application No. 233661/90, hereinafter referred to as Compound (A)]represented by formula (A). [drawing 12]
PFC count in control means PFC count in the absence of the test compound (dimethylsulfoxide alone).

The test system is the same in assay [2]. Described as above. The conditions noted are these: Mus musculus, Erythrocyte, 120 h, spleen cells of mice sensitized with sheep erythrocytes, cultured 5 days, read-out: Inhibition rate; for inhibition at 10 µM: 10^-5 M; for inhibition at 0.1 µM: 10^-7 M. The format is cell-based, Balb/c strain mice.

A word on the inhibition: it is how much of the control response was suppressed. For `O=C(O)c1c2c(nc3ccc(F)cc13)-c1ccc(-c3ccccc3)cc1CC2` [A, 5,6-dihydro-9-fluoro-3-phenylbenz[c]acridine-7-carboxylic acid, reference compound], the inhibition at 1 µM in assay [1] was 45.9%. Moreover, the inhibition at 10 µM in assay [2] was found to be 78.6%.
Turning to `CC1Cc2c(nc3ccc(F)cc3c2C(=O)O)-c2ccc(-c3ccccc3F)cc21` (centres unmarked) [Compound 5, 5,6-Dihydro-9-fluoro-3-(2-fluorophenyl)-5methylbenz[c]acridine-7-carboxylicacid], the inhibition at 1 µM in assay [1] was 64.6%. Also, the inhibition at 10 µM in assay [2] was found to be 98.7%.
The matching figures for `CC1Cc2cc(-c3ccccc3F)ccc2-c2nc3ccc(F)cc3c(C(=O)O)c21` (centres unmarked) [Compound 8]: 80.2% and 98.7%.
As for `O=C(O)c1c2c(nc3ccc(F)cc13)-c1ccc(-c3ccccc3F)cc1CCC2` [Compound 3, 6,7-Dihydro-10-fluoro-3-(2-fluorophenyl) -5Hbenzo [6, 7]cyclohepta [1,2-b]quinoline-8-carboxylic acid], in assay [1], the inhibition at 1 µM is 80.3%. In addition, in assay [2], the inhibition at 10 µM is 83.5% and the inhibition at 0.1 µM was 55.4%.
As for `O=C(O)c1c2c(nc3ccc(F)cc13)-c1ccc(-c3ccccc3F)cc1CC2` [Compound 2, 5,6-Dihydro-9-fluoro-3-(2-fluorophenyl) ben z [c]acridine-7carboxylicacid], the inhibition at 1 µM in assay [1] amounted to 94.4%. Also, in assay [2], the inhibition at 10 µM is 99.4% and the inhibition at 0.1 µM was determined as 57.1%.
On to `CC1(C)Cc2c(nc3ccc(F)cc3c2C(=O)O)-c2ccc(-c3ccccc3F)cc21` [Compound 7], for which, in assay [1], the inhibition at 1 µM was determined as 75.3%. Besides, the inhibition at 10 µM in assay [2] was 98.1%.
